The source of these data is patent US8293511B2, “Production of β-Lactam antibiotics” (DSM IP Assets B.V., priority 2006, dated 2012).

Assay [1] relates to Bacillus subtilis ATCC6633. Kind of assay: Bioassay development: growth in 2xTY medium with serial dilutions of antibiotic, OD600. To be noted: 16 hours. The format is cell-based. As for the experimental part: (§1) The bacterial strains Escherichia coli ESS, Bacillus subtilis ATCC6633 and Micrococcus luteus ATCC9341 were grown overnight in 2×TY-medium at 30° C. and 280 rpm. After 16 hours of growth, the OD^600 was measured. Typically, the OD^600 amounts 5.0, ranging from 2.0 to 8.0.
(§2) A solution of amoxicillin was made at a concentration of 7 mg/ml. Subsequently, serial dilutions were made ranging from 1 mg/l down to 0.001 mg/l. MilliQ water served as a negative control.
(§3) In a 96 wells microplate, 25 μl of the serial dilutions were pipetted in the wells. Each microplate was prepared in duplicate. The overnight bacterial cultures were diluted in fresh 2×TY-medium to a final OD^600 of 0.01. To each well, 150 μl of the diluted bacterial cultures was added. The microplates were covered with a lid, and incubated overnight at 25° C. and the duplicate microplate at 37° C.
(§4) After 16 hours of incubation, the OD^600 was read in a microplate reader. From the results, the concentration of amoxicillin still allowing uninhibited growth of the test microorganisms can be read.
(§5) A solution of ampicillin was made at a concentration of 7 mg/ml. Subsequently, serial dilutions were made ranging from 1 mg/l down to 0.001 mg/l. MilliQ water served as a negative control.
(§6) In a 96 wells microplate, 25 μl of the serial dilutions were pipetted in the wells. Each microplate was prepared in duplicate. The overnight bacterial cultures were diluted in fresh 2×TY-medium to a final OD^600 of 0.01. To each well, 150 μl of the diluted bacterial cultures was added. The microplates were covered with a gas permeable adhesive seal, and incubated overnight at 25° C. and the duplicate microplate at 37° C.
(§7) After 16 hours of incubation, the OD^600 was read in a microplate reader. From the results, the concentration of ampicillin still allowing uninhibited growth of the test microorganisms can be read.

For assay [2], the system named is Escherichia coli ESS (DS10031). Described as above. The assay is classed as cell-based. To be noted: 16 hours. As for the experimental part: as §1, §2, §3, §4, §5, §6, §7
The test system of assay [3] is Micrococcus luteus ATCC9341. The assay is described as above. To be noted: 16 hours. The format is cell-based. The protocol:
as §1, §2, §3, §4, §5, §6, §7

Assay [4] has as its system IPNS. To be noted: Huffman et al. J. Med. Chem. 1992; cited from earlier work.

In the case of `CC1(C)S[C@@H]2[C@H](NC(=O)[C@H](N)c3ccc(O)cc3)C(=O)N2[C@H]1C(=O)O` [Amoxicillin, amoxicillin], the “Concentration of amoxicillin still allowing uninhibited growth in 2xTY medium” value was 1.0 mg/L in assay [1] (at 25° C.); 5 mg/L in assay [1] (at 37° C.); 0.1 mg/L in assay [2] (at 25° C.); 0.1 mg/L in assay [2] (at 37° C.); 0.001 mg/L in assay [3] (at 25° C.); 0.002 mg/L in assay [3] (at 37° C.).
Consider `CC1(C)S[C@@H]2[C@H](NC(=O)[C@H](N)c3ccccc3)C(=O)N2[C@H]1C(=O)O` [Ampicillin, ampicillin], for which the “Concentration of ampicillin still allowing uninhibited growth in 2xTY medium” value was 0.5 mg/L in assay [1] (at 25° C.); 2.5 mg/L in assay [1] (at 37° C.); 0.05 mg/L in assay [2] (at 25° C.); 0.05 mg/L in assay [2] (at 37° C.); 0.001 mg/L in assay [3] (at 25° C.); 0.002 mg/L in assay [3] (at 37° C.).
For `CC(C)[C@@H](NC(=O)[C@H](CS)NC(=O)Cc1ccc(O)cc1)C(=O)O` [p-hydroxyphenylacetyl-L-cysteinyl-D-valine], in assay [4], the “Antibiotic activity after treatment of the substrate with IPNS” value was “not to result in antibiotic activity”.
Take “m-COOH-DL-phenylglycyl-L-cysteinyl-D-valine”: the “Antibiotic activity after treatment of the substrate with IPNS” value in assay [4] is reported as “not to result in antibiotic activity”.
